TGI and GI50 data for 17 compounds are collected here from PubChem BioAssay (NCI).

Test systems include UO-31 renal; DMS 114 small cell lung; KM20L2 colon; LXFL 529 NSCLC; KM12 colon; SK-OV-3 ovarian; OVCAR-5 ovarian; NCI-H522 lung.
What all share (test): NCI-60 cell line screen, 48 h

Each structure is given as a SMILES string. Values joined by “and” are separate entries in the source; they are usually repeats but may differ in a detail not shown here. Equal values may be shown once.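 Tested at 5 concentrations; 48 h exposure; 96-well plates; endpoints linearly interpolated, else capped at highest concentration. GI50 marks 50% less growth. TGI is the concentration that stops growth completely.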

Take `Cc1ccc(NC(=O)OCC(COc2ccc(Cl)cc2Cl)OC(=O)Nc2ccc(C)cc2)cc1` (centres undefined): the TGI in the assay with UO-31 renal, with DMS 114 small cell lung, in the assay on KM20L2 colon, in the assay with LXFL 529 NSCLC, in the assay on KM12 colon and with SK-OV-3 ovarian was > 100 µM in each case. For the same compound, the TGI in the assay on OVCAR-5 ovarian is > 100 µM.

With `CCCCCCCCCCCCCB(O)O`, the TGI in the assay with NCI-H522 lung, with UO-31 renal, in the assay on DMS 114 small cell lung, with KM20L2 colon, in the assay with LXFL 529 NSCLC and in the assay with KM12 colon was > 100 µM in each case. Moreover, the TGI with SK-OV-3 ovarian and in the assay on OVCAR-5 ovarian was > 100 µM throughout. Further, the GI50 in the assay on UO-31 renal is > 100 µM and 27.5 µM; in the assay on KM12 colon, > 100 µM and 35.8 µM.

On to `CC(=O)O[C@H]1CC2C=CC3C(CCC31)O2` (some centres undefined), for which the TGI in the assay on UO-31 renal, with DMS 114 small cell lung, in the assay with KM20L2 colon, in the assay on LXFL 529 NSCLC and in the assay with SK-OV-3 ovarian was > 100 µM in each case.

With `C=C(CCCO)[C@@H]1CC[C@@](C)(O)[C@H]1C`, the TGI in the assay with NCI-H522 lung, in the assay on UO-31 renal, with DMS 114 small cell lung, with KM20L2 colon, in the assay with LXFL 529 NSCLC and in the assay with KM12 colon was > 100 µM in each case. The TGI in the assay on SK-OV-3 ovarian and in the assay with OVCAR-5 ovarian was > 100 µM in each case.

In the case of `CC(C)C1N2CCCCC2[C@@H]2c3[nH]c4ccccc4c3CCN12` (some centres undefined), the TGI with UO-31 renal, in the assay with DMS 114 small cell lung, in the assay on KM20L2 colon, with LXFL 529 NSCLC, with SK-OV-3 ovarian and in the assay on OVCAR-5 ovarian was > 100 µM in each case.

As for `CC1CC[P+](c2ccccc2)(c2ccccc2)CC1`, the TGI with NCI-H522 lung, in the assay with UO-31 renal, in the assay with DMS 114 small cell lung, with KM20L2 colon, in the assay on LXFL 529 NSCLC and with KM12 colon was > 100 µM in each case. The TGI with SK-OV-3 ovarian and in the assay on OVCAR-5 ovarian was > 100 µM each time.

As for `COc1ccc2nc(NC(=O)C(=O)NNC(=O)c3ccncc3)sc2c1`, the TGI in the assay with NCI-H522 lung, in the assay on UO-31 renal, in the assay on DMS 114 small cell lung, with KM20L2 colon, with LXFL 529 NSCLC and with SK-OV-3 ovarian was > 100 µM in each case.

With `C/C(=N\NC(=O)CC(=O)N(C(=O)c1ccc(Cl)cc1)c1ccc(C)cc1)c1ccccc1O`, the TGI with NCI-H522 lung, in the assay on UO-31 renal, in the assay with DMS 114 small cell lung, in the assay on KM20L2 colon, in the assay on LXFL 529 NSCLC and in the assay on KM12 colon was > 100 µM throughout. The TGI in the assay with SK-OV-3 ovarian and in the assay on OVCAR-5 ovarian was > 100 µM each time.

With `COc1cccc(NC(=O)C(=O)C2C=CCS2(=O)=O)c1` (centres undefined), the TGI with NCI-H522 lung, in the assay with UO-31 renal, with DMS 114 small cell lung, with KM20L2 colon, in the assay on LXFL 529 NSCLC and in the assay on KM12 colon was > 100 µM throughout. In addition, the TGI in the assay with SK-OV-3 ovarian and with OVCAR-5 ovarian was > 100 µM in each case.

In the case of `Cc1ccc2nc(NC(=O)/C(=N\NC(=S)NN)C3C(=O)NC(=S)NC3=O)sc2c1`, the TGI with NCI-H522 lung, with UO-31 renal, in the assay with KM20L2 colon, with LXFL 529 NSCLC, with KM12 colon and in the assay with SK-OV-3 ovarian was > 100 µM each time. Besides, the TGI in the assay with OVCAR-5 ovarian is > 100 µM.

`COC[C@H](C)N=CN1CCc2ccccc2C1(Cc1ccccc1)Cc1ccccc1`: the TGI amounted to 26.7 µM with NCI-H522 lung; 33 µM in the assay with UO-31 renal; 24.7 µM in the assay with KM20L2 colon; 25.3 µM with LXFL 529 NSCLC; 27.3 µM in the assay on KM12 colon; 30.6 µM in the assay on SK-OV-3 ovarian.

For `CCOC(=O)CNc1nnnn1C1OC(CO)C(O)C1O` (centres undefined), the TGI in the assay on NCI-H522 lung, in the assay on UO-31 renal, in the assay with DMS 114 small cell lung, in the assay with KM20L2 colon, in the assay on LXFL 529 NSCLC and with KM12 colon was > 100 µM throughout. Further, the TGI in the assay on SK-OV-3 ovarian and in the assay on OVCAR-5 ovarian was > 100 µM throughout.

As for `c1ccc2c(NCCCCCCNc3cccc4ccccc34)cccc2c1`, the TGI with NCI-H522 lung, in the assay with UO-31 renal, in the assay with DMS 114 small cell lung, in the assay with KM20L2 colon, in the assay on LXFL 529 NSCLC and in the assay on KM12 colon was > 100 µM each time. Further, the TGI in the assay on SK-OV-3 ovarian and in the assay on OVCAR-5 ovarian was > 100 µM each time.

Consider `COc1c2c(cc3c1C(=O)Cc1ccc4c(c1CN(C)CC3)OCO4)OCO2`, for which the TGI with NCI-H522 lung, in the assay on UO-31 renal, with DMS 114 small cell lung, in the assay with KM20L2 colon, in the assay on KM12 colon and in the assay on SK-OV-3 ovarian was > 100 µM each time. Further, the TGI in the assay on OVCAR-5 ovarian was > 100 µM.

As to `c1ccc(N/N=C2\NN=C(c3ccccc3)CS2)cc1`, the TGI in the assay with NCI-H522 lung turned out to be 10.8 µM; in the assay on UO-31 renal, 32.8 µM; in the assay with KM20L2 colon it was 22.8 µM; with KM12 colon, 53.2 µM; in the assay on SK-OV-3 ovarian it was 39.9 µM; in the assay with OVCAR-5 ovarian, 41.8 µM.

For `COC(=O)/C(=N\NC(N)=O)C(C(=O)C=C(C)C)C(=O)C(=O)Nc1ccc(Cl)c(Cl)c1` (centres undefined), the TGI with NCI-H522 lung, with UO-31 renal, in the assay on DMS 114 small cell lung, with KM20L2 colon, in the assay with LXFL 529 NSCLC and in the assay on KM12 colon was > 100 µM each time. Also, the TGI in the assay on SK-OV-3 ovarian and in the assay on OVCAR-5 ovarian was > 100 µM each time.

With `[O-]c1c2c(nn1-c1ccc(Cl)cc1)c1ccccc1c[n+]2Cc1ccccc1`, the TGI in the assay with NCI-H522 lung, in the assay on UO-31 renal, in the assay on DMS 114 small cell lung, in the assay with KM20L2 colon, in the assay on LXFL 529 NSCLC and in the assay on KM12 colon was > 100 µM each time. Besides, the TGI in the assay on SK-OV-3 ovarian and with OVCAR-5 ovarian was > 100 µM each time.
